Assays:
particulate sialidase = conditions: highly impure enzymes; the patent calls these results questionable; cited from earlier work
Tyrosinase [1] = assay: Gas biosensor diffusion cell, Tyrosinase/L-Tyrosine reaction monitored at 305 nm, Curlon Grade 861 film; assay type: biochemical, Mushroom; conditions: gas in upper chamber of diffusion cell, 25° C.; for maximum change in enzymatic activity, Reference Air: compared to air diffusion through the film; for maximum change in enzymatic activity, Reference Nitrogen: compared to nitrogen
Source text: Construction consists of coupling two 1-cm lightpath UV grade methacrylate covets with a ring of 100% silicone rubber (General Purpose Sealant, Dow Corning) applied on their outside rim. Before sealing with silicone, a 1-cm^2 square of a polymeric film of known permeabilities to the different gases is placed between the two cuvettes. Holes have been previously drilled in each covet (drill bit 7/64") to receive a septum (d=3 mm; h=8 mm; Supelco No. 3-3301M). 100% silicone rubber was applied around the septa to avoid possible leaks.
Tyrosinase/L-Tyrosine monitored at 305 nm
Enzyme: Tyrosinase (SIGMA No. T-7755) (Monophenol monooxygenase; Polyphenol oxidase; Catechol oxidase; Monophenol, dihydroxyphenylalanine: oxygen oxidoreductase; From Mushroom
Chamber 1 (upper) is flushed for 2 […] with 100% nitrogen (very low flow to prevent tearing of the polymeric film: line delivery pressure <5 psi) at ambient temperature (25° C.), using 22G11/2 needles (small gauge to reduce risks of leakage through holes in septa).
Chamber 2 (lower) is flushed in the same way as chamber 1.
Chamber 2 is then filled with 2.0 ml of N2 -saturated solution C, by means of a 3 cc syringe (previously purged with N2).
Before the spectrophotometric run, 20 cc of the appropriate gas (Air, N2, Ar, Kr, Xe) is passed through chamber 1 of each of the 3 diffusion cells simultaneously, by means of a 30 cc syringe.
Following immediately, the run starting time t0 is given by the simultaneous injections of 0.5 ml of N2 -saturated-solution B in chamber 2 of each diffusion cell. The 1 cc syringes used for sampling the 0.5 ml are previously purged with N2.
A selected example is given below for one of the enzymatic system/polymeric film tandems assayed. Given as well is the maximum change in enzymatic activity noted compared to the reaction resulting from air diffusion through the film, or compared to nitrogen. A sample graphic data output file is appended.
Polymeric film insert in diffusion cells: Curlon Grade 861 (CURWOOD).
Biochemical reaction (monitored at 305 nm): Tyrosinase/L-Tyrosine at 25° C. and optimal reaction conditions, gas in upper chamber of the diffusion cell being: […]

[2] = per atmosphere of added nitrous oxide; independent of oxygen partial pressure; cited from earlier work
β-D-Glucosidase = assay: β-D-Glucosidase/p-Nitrophenyl-β-D-Glucopyranoside biosensing bag (PE 2 mil) in gas-packaged produce, rate of yellow colour change; assay type: biochemical, Almonds; conditions: packaged vegetables, compared with nitrogen packaged produce; acceleration rather than inhibition
Source text: The above mentioned hydrolase system (β-D-Glucosidase/p-Nitrophenyl-β-D-Glucopyranoside) is placed inside a 3 cc bag by heat-sealing of the polymeric film used in protocol described above (PE 2 mil).
The protocol followed is the same as described in the third detailed example of the invention, except for the fact that the colorigenic reaction observed is yellow, and is an acceleration rather than an inhibition. Thus, Kr packaged vegetables will produce a yellow color change in the device faster than will nitrogen packaged produce.

Tyrosinase [3] = assay: Tyrosinase/L-tyrosine biosensing bag (Curlon Grade 861) placed in gas-packaged food packages, rate of colour change; assay type: biochemical, Mushroom
Source text: The above mentioned oxido-reductase system (tyrosinase/L-tyrosine) is placed inside a 3 cc bag by heat-sealing of the polymeric film used in protocol described above (Curlon Grade 861, Curwood).
The 3 cc bag is placed into a series of packages containing food products under different gas mixtures, which include neon, argon, krypton, xenon, oxygen, nitrogen and carbon dioxide. The relative rate of changing color of the device, that is the development of a pink-brown color, is monitored over time.
A similar series is run, but after holes have been punctured in the packages to simulate leaks. The rate of changing color is then monitored. Thus we have made a leak detection system.
In the same manner, the exchange of gases through the film of the packages and the change in respiration of fresh horticultural commodities can also be monitored. […] Preparation of a standard curve permits detection of each type of gas mix relative to the other, and also permits detection of a change in oxygen level caused by vegetable respiration.

| rate of yellow color change in the device (β-D-Glucosidase) | rate of changing color of the biosensing device, case of a leak (Tyrosinase [3]; package under 100% gas, compared with 100% N2) | rate of changing color of the biosensing device (pink-brown) (Tyrosinase [3]; packaged vegetables, compared with the package under 100% N2) | SMILES | effect on activity of particulate sialidase (particulate sialidase) | maximum change in enzymatic activity, Reference Air (Tyrosinase [1]) [%] | maximum change in enzymatic activity, Reference Nitrogen (Tyrosinase [1]) [%] | inhibition per atmosphere of added gas [2] [%] |
| --- | --- | --- | --- | --- | --- | --- | --- |
|  |  |  | [Xe] [Xe, xenon] | enhance the activity | -30 | -26 |  |
|  |  |  | [N-]=[N+]=O [nitrous oxide] | enhance the activity |  |  | 1.9 |
| faster | turns color more slowly |  | [Kr] [Kr, krypton] |  | -35 | -32 |  |
|  |  | turns color more slowly | [Ar] [Ar, argon] |  | -25 | -21 |  |
|  |  |  | FC(F)(F)C(Cl)Br (stereo not shown) [halothane] | enhance the activity |  |  |  |
